Results reported in patent publication US20230118688A1, “1H-PYRAZOLO[4,3-d]PYRIMIDINE COMPOUNDS AS TOLL-LIKE RECEPTOR 7 (TLR7) AGONISTS” (BRISTOL-MYERS SQUIBB COMPANY, priority 2020, published 2023).
Where two headings read alike, the source gives them in different places.

Experiments:
human TLR7 = target: T1, human TLR7 (Homo sapiens, UniProt Q9NYK1); test: Human TLR7 agonist activity reporter assay (HEK-Blue TLR7 cells, SEAP reporter); type: cell-based; conditions: 18 h treatment
T1 construct: host or cells: HEK-Blue TLR7 cells (engineered human embryonic kidney cells)
T1 sequence (Q9NYK1 27-1049): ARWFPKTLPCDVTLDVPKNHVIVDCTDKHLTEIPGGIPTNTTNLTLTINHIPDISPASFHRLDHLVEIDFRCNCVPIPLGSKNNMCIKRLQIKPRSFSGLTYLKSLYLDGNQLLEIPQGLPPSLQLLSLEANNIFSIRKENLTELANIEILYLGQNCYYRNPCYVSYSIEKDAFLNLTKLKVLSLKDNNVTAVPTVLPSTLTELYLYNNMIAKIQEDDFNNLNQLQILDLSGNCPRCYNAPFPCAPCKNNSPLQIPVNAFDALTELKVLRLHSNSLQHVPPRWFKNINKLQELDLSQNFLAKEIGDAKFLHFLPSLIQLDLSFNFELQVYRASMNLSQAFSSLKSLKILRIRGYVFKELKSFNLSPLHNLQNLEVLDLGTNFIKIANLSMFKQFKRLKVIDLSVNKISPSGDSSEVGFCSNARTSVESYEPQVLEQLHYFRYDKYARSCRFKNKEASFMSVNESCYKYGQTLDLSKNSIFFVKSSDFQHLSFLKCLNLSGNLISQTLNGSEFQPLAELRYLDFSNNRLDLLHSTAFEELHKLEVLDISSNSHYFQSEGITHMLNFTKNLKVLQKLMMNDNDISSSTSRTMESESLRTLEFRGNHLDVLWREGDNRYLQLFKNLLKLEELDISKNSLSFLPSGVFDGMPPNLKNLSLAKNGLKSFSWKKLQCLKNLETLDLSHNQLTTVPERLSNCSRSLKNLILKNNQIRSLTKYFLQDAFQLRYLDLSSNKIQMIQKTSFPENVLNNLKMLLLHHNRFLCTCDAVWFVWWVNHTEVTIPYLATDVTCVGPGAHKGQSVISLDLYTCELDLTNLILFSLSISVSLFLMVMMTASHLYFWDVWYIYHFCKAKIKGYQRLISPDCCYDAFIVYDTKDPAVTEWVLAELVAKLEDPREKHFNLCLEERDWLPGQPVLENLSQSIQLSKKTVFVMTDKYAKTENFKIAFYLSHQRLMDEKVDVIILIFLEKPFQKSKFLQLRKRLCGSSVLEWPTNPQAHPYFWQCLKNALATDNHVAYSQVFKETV
How it was run: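 HEK-Blue TLR7 cells (15,000/well) treated with compound for 18 h at 37 °C, 5% CO2. Secreted SEAP measured with Quanti-Blue, 30 min, OD 620 nm. EC50 taken as concentration giving half-maximal response between baseline and maximum.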

CD69 = test: Induction of CD69 in human whole blood; type: cell-based; conditions: 17 h, CD69 surface staining, 100% set to 1 uM resiquimod
How it was run: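 Heparinized human whole blood, RPMI-diluted, incubated with TLR7 agonist (final 1 uM from 1 mM stock) for 17 h at 37 °C. CD69-PE surface staining with CD14/CD19 gating, fix/lysis, then flow cytometry; curves normalized with 1 uM resiquimod as 100%.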

[1] = Table A2, read-out: hTLR7 Agonism EC50
[2] = Table A2, read-out: hWB CD69 EC50
[3] = average where assay repeated, Table A1, read-out: hTLR7 Agonism EC50
[4] = average where assay repeated, Table A1, read-out: hWB CD69 EC50

Row | EC50 (human TLR7; [1]) [µM] | EC50 (CD69; [2]) [µM] | EC50 (human TLR7; [3]) [µM] | EC50 (CD69; [4]) [µM] | Compound
1 | 0.77 | 0.17 |  |  | CCC[C@@H](CCO)Nc1nc(N)nc2cnn(Cc3cc(CN(C)CCN(C)C)cnc3OC)c12 [Compound 170, (3S)-3-[(5-amino-1-{[5-({[2-(dimethyl-amino)ethyl](methyl)amino}-methyl)-2-methoxypyridin-3-yl]methyl}-1H-pyrazolo[4,3-d]pyrimidin-7-yl)amino]hexan-1-ol]
2 | 0.437 | 0.14 |  |  | CCC[C@@H](CCO)Nc1nc(N)nc2cnn(Cc3cc(CN4C[C@H]5C[C@@H]4CN5C)c(F)cc3OC)c12 [Compound 171, (3S)-3-({5-amino-1-[(4-fluoro-2-methoxy-5-{[(1R,4R)-5-methyl-2,5-diazabicyclo[2.2.1]heptan-2-yl]methyl}phenyl)methyl]-1H-pyrazolo[4,3-d]pyrimidin-7-yl}amino)hexan-1-ol]
3 | 0.167 | 0.0298 |  |  | CCC[C@@H](CCO)Nc1nc(N)nc2cnn(Cc3cc(CNCCO)c(F)cc3OC)c12 [Compound 172, (3S)-3-({5-amino-1-[(4-fluoro-5-{[(2-hydroxyethyl)amino]methyl}-2-methoxyphenyl)methyl]-1H-pyrazolo[4,3-d]pyrimidin-7-yl}amino)hexan-1-ol]
4 | 0.04 | 0.0232 |  |  | CCC[C@@H](CCO)Nc1nc(N)nc2cnn(Cc3cc(CNCCS(C)(=O)=O)c(F)cc3OC)c12 [Compound 173, (3S)-3-({5-amino-1-[(4-fluoro-5-{[(2-methanesulfonylethyl)amino]methyl}-2-methoxyphenyl)methyl]-1H-pyrazolo[4,3-d]pyrimidin-7-yl}amino)hexan-1-ol]
5 | 0.0961 | 0.0414 |  |  | CCC[C@@H](CCO)Nc1nc(N)nc2cnn(Cc3nc(CO)ccc3OC)c12 [Compound 174, (3S)-3-[(5-amino-1-{[6-(hydroxyl-methyl)-3-methoxypyridin-2-yl]methyl}-1H-pyrazolo[4,3-d]pyrimidin-7-yl)amino]hexan-1-ol]
6 | 0.204 | 0.077 |  |  | CCC[C@@H](CCO)Nc1nc(N)nc2cnn(Cc3cc(CN4C[C@H]5C[C@@H]4CN5CCO)c(F)cc3OC)c12 [Compound 175, (3S)-3-({5-amino-1-[(4-fluoro-5-{[(1R,4R)-5-(2-hydroxyethyl)-2,5-diazabicyclo[2.2.1]heptan-2-yl]methyl}-2-methoxyphenyl)-methyl]-1H-pyrazolo[4,3-d]pyrimidin-7-yl}amino)hexan-1-ol]
7 | 0.0572 | 0.0057 |  |  | CCC[C@@H](CCO)Nc1nc(N)nc2cnn(Cc3cc(CN4CC[C@H](O)C4)c(F)cc3OC)c12 [Compound 176, (3S)-1-({5-[(5-amino-7-{[(3S)-1-hydroxyhexan-3-yl]amino}-1H-pyrazolo[4,3-d]pyrimidin-1-yl)methyl]-2-fluoro-4-methoxyphenyl}methyl) pyrrolidin-3-ol]
8 | 0.75 | 0.0345 |  |  | CCC[C@@H](CCO)Nc1nc(N)nc2cnn(Cc3cc(CN4CCN(C)CC4)ncc3OC)c12 [Compound 177, (3S)-3-{[5-amino-1-({5-methoxy-2-[(4-methylpiperazin-1-yl)methyl]-pyridin-4-yl}methyl)-1H-pyrazolo[4,3-d]pyrimidin-7-yl]amino}hexan-1-ol]
9 | 0.617 | 0.0339 |  |  | CCC[C@@H](CCO)Nc1nc(N)nc2cnn(Cc3cc(CNC)ncc3OC)c12 [Compound 178, (3S)-3-{[5-amino-1-({5-methoxy-2-[(methylamino)methyl]pyridin-4-yl}methyl)-1H-pyrazolo[4,3-d]pyrimidin-7-yl]amino}hexan-1-ol]
10 |  |  | 0.0942 | 0.0295 | N7-butyl-1-[(2-methoxy-5- {[(1S,4S)-5-methyl-2,5- diazabicyclo[2.2.1]heptan-2- yl]methyl}phenyl)methyl]- 1H-pyrazolo[4,3-d] pyrimidine-5,7-diamine [Compound 142]
11 |  |  | 0.448 | 0.325 | N7-butyl-1-{[2-methoxy-5- ({octahydropyrrolo[3,4-c]- pyrrol-2-yl}methyl)phenyl]- methyl}-1H-pyrazolo[4,3- d]pyrimidine-5,7-diamine [Compound 135]
